Test results published in patent publication US20030113665A1, “Optical data medium containing, in the information layer, a dye as a light-absorbing compound” (priority 2001, published 2003).
Where two headings read alike, the source gives them in different places.

Columns and labels:
[1] = UV absorption spectra in solution; format: physicochemical; settings: for λmax: in dioxane (Tables 1-3); for λ1/2-λ1/10: on the shortwave slope (Tables 1-3); for UV (dioxane): λmax: in dioxane; for UV (DMF): λmax: in DMF
Excerpt: For a, preferably singly recordable, optical data carrier according to the invention which is written and read by light from a blue laser such merocyanine dyes are preferred whose absorption maximum λmax2 is in the range from 420 bis 550 nm, wherein the wavelength λ½ at which the extinction on the shortwave slope of the absorption maximum of the wavelength λmax2 is half the extinction value at λmax2 and the wavelength λ 1/10 at which the extinction on the shortwave slope of the absorption maximum of the wavelength λmax2 is a tenth of the extinction value at λmax2, are preferably in each case no further than 50 nm away from each other.
The absorption spectra are measured for example in solution.
Suitable merocyanines having the required spectral properties are in particular those in which the change in dipole moment Δμ=|μg-μag|, i.e. the positive difference between the dipole moments in the ground state and in the first excited state, is as small as possible, preferably <5 D, and particularly preferably <2 D. One method of determining such a change in dipole moment Δμ is described for example in F. Würthner et al., Angew. Chem. 1997, 109, 2933 and in the literature cited therein. Low solvatochromism (dioxane/DMF) is also a suitable criterion for selection. Merocyanines are preferred whose solvatochromism Δλ=|λDMF-λdioxane|, i.e. the positive difference between the absorption wavelengths in the solvents dimethylformamide and dioxane is <20 nm, particularly preferably <10 nm and very particularly preferably <5 nm.

[2] = Recording/readout test of optical disc with vapour-deposited phthalocyanine information layer
Excerpt: Directly on top of the grooved surface the information layer of 40 nm was coated by vacuum vapor deposition method. […] Total thickness of the adhesive layer and the cover layer was set as 100 μm.
The parameters of readout/recording setup was as follows.
Numerical aperture of the objective lens=0.85, two element lens
Readout laser power=0.30 mW
Writing laser power=6.0 mW
Pulse strategy=7 pulses with 50% duty inside one mark
The dye dichloro-silicon-phthalocyanine (SiCl2Pc) was applied for the information layer.

[3] = UV absorption spectra in solution; format: physicochemical
[4] = Solubility in coating solvent; format: physicochemical; settings: in TFP (2,2,3,3-tetrafluoropropanol)
[5] = = |λDMF − λdioxane| (Tables 1-3)
[6] = molar extinction coefficient at absorption maximum

CN1/C(=C\C=C(\C#N)c2nc3ccccc3s2)C(C)(C)c2ccccc21 [Example 76]
λmax [1]: 462 nm
λ1/2-λ1/10 [1]: 34^3) nm

CCCCCCCCCCCCN1C(=O)/C(=C/c2ccc(N(C)C)o2)C(=O)N(C)C1=O [Example 27]
UV (dioxane): λmax [1]: 483 nm
λ½-λ1/10 (shortwave slope) [1]: 32 nm

Cc1cnc(N(C)C)s1 [Example 28]
Δλ [1, 5]: 16 nm
ε ([1]; Tables 1-3): 40990 L/mol/cm
λmax [1]: 470 nm
λ1/2-λ1/10 [1]: 32^3) nm

C=C1N(C)c2ccc(C)cc2C1(C)C [Example 63]
Δλ [1, 5]: 6 nm
ε ([1]; Tables 1-3): 41530 L/mol/cm
λmax [1]: 503 nm
λ1/2-λ1/10 [1]: 36^3) nm

CC1=C([n+]2ccccc2)C(=O)NC(=O)/C1=C/C=C1\N(C)c2ccccc2C1(C)C [Example 26]
UV (methanol): λmax ([1]; in methanol): 513 nm
ε [1, 6]: 86510 L/mol/cm
λ½-λ1/10 (shortwave slope) [1]: 38 nm

[Cl][Al]1[n]2c3c4ccccc4c2/N=C2N=C(/N=c4/c5ccccc5/c([n]41)=N/C1=NC(=N\3)/c3ccccc31)c1ccccc1\2 [Example 1, monochloro-aluminium-phthalocyanine]
readout stability [2]: surprisingly good

dichloro-silicon-phthalocyanine [Example 2]
readout stability ([2]; SiO2 buffer layer and PSA layer, 100 μm cover): very high

CCCCN1C(=O)C(C#N)=C(C)/C(=C\C=C2/N(C)c3ccccc3C2(C)C)C1=O [Example 24]
λ½-λ1/10 (longwave slope) [3]: 12 nm
UV (DMF): λmax [1]: 522 nm
UV (dioxane): λmax [1]: 520 nm
Solubility [4]: > 2%

C=C1N(CCCCN2C(=C)C(C)(C)c3ccccc32)c2ccccc2C1(C)C [Example 77]
λmax [1]: 500 nm

C=C1N(C)c2ccccc2C1(C)C [Example 56]
Δλ [1, 5]: 5 nm
ε ([1]; Tables 1-3): 46470 L/mol/cm
λmax [1]: 499 nm
λ1/2-λ1/10 [1]: 36^3) nm

CCCN1C(=O)C(C#N)=C(C)/C(=C\C=C\N(C)c2ccc(OC)cc2)C1=O [Example 25]
UV (DMF): λmax [1]: 477 nm
UV (dioxane): λmax [1]: 482 nm
ε [1, 6]: 73013 L/mol/cm
λ½-λ1/10 (shortwave slope) [1]: 33 nm
Δλ ([1]; solvatochromism |λDMF-λdioxane|): 5 nm
Solubility [4]: > 2%
